# Assay results published in article PMC11982498 (Redox Biology, 2025).
# “Also recorded” adds a separate entry of the source.
# Columns and labels:
# BCL-2 i-motif = assay: CD spectra of BCL-2 i-motif; format: binding
# Protocol: (§1) Figure S5. ESI-MS, UV, CD, and EMSA experiments were performed to examine the effect of B14 on BCL-2 promoter i-motif and G-quadruplex. (A) ESI-MS experiment for oligomer BCL-2 G4 alone, which was annealed in 1 × BPES buffer at pH 7.4. (B) ESI-MS experiment for above oligomer BCL-2 G4 with addition of B14 in 1 × BPES buffer at pH 7.4. (C-D) TO displacement with increasing amount of oligomer BCL-2 i-motif annealed in 1 X BPES buffer at pH 5.5 in the presence of 20 equivalents of B14 or A22. (E) EMSA experiment was performed for the effect of B14 on inducing BCL-2 i-motif formation. The lanes from left to right were as follow: BCL-2 i-motif alone at pH 5.5; BCL-2 i-motif alone at pH 6.2; BCL-2 i-motif plus 1 eq B14 at pH 6.2; BCL-2 i-motif plus 5 eq B14 at pH 6.2; BCL-2 i-motif plus 10 eq B14 at pH 6.2. (F) CD experiment was performed to study the interaction of B14 or A22 with BCL-2 promoter i-motif.
# CD measurements were performed on a Chirascan circular dichroism spectrophotometer (Chirascan, England). A 10 mm path length quartz cuvette was used to record the spectra with a wavelength range of 230-350 nm with a 1 nm bandwidth. CD and CD melting experiments were performed at a fixed i-motif or G-quadruplex concentration (1 μM) with or without a fixed concentration (20 μM) of B14 and Curcumin in different buffers. […]
# [1] = molecular target: BCL-2 gene promoter i-motif; assay: SPR binding to BCL-2 promoter i-motif; details: MES buffer pH 5.5, 25 °C
# Protocol: SPR measurement was performed on a ProteOn XPR36 protein interaction array system (Bio-Rad Laboratories, Hercules, California, USA) using a Neutravidin-coated GLH sensor chip. BCL-2 i-motif binding analysis was performed following a published method without significant modification. For immobilization, 5′-biotin-labeled DNA oligomers at 800 nM annealed in 1 × MES buffer at pH 5.5 by heating at 95 °C for 5 min, were attached to a reptavidin-coated sensor chip. Compounds were prepared through serial dilution with flowing buffer (20 mM MES, 100 mM KCl, pH 5.5 for i-motif) in at least 6 concentrations, which were simultaneously injected at a flow rate of […] for a 120 s of association phase, followed by 250 s of dissociation phase at 25 °C. Langmuir model was used for fitting kinetic data, which was analyzed with ProteOn manager software. KD values were determined through equation KD = kd/ka. Compound A22 was used as a positive control, and other compounds were selected as candidates only if their KD values for binding to BCL-2 i-motif were similar to that of A22.
# HK-2 cells = assay: MTT cytotoxicity assay, HK-2; format: cell-based; details: Homo sapiens, incubation for 48 h
# Protocol: SH-SY5Y cells, HepG2 cells, HK-2 cells and HT-22 cells were seeded on 96-well plates (5.0×10^3 per well) with 100 μL of culture medium, and incubated for 12 h at 37 °C in a humidified atmosphere with 5% CO2, and then exposed to various concentrations of B14. After 48 h of treatment at 37 °C in a humidified atmosphere with 5% CO2, 100 μL of 0.5 mg/mL MTT solution was added to each well, and the mixture was further incubated for 4 h. The cells in each well were then treated with DMSO (200 μL for each well), and the culture medium was siphoned off, and the absorbance was recorded at 570 nm. All drug doses were parallel tested in triplicate, and the cytotoxicity was evaluated based on the percentage of cell survival in a dose-dependent manner regarding the negative control. The final IC50 values were determined by using Graph Pad Prism 9.0.
# HRAS promoter i-motif = assay: TO displacement assay, HRAS i-motif; format: binding
# Protocol: DNA oligonucleotides were diluted to 1 μM with 1 × PBES buffer at pH 5.5, annealed at 95 °C for 10 min, cooled to room temperature, and stored at 4 °C for future use. TO dye (1 μM) was added to the DNA solution followed with incubation for 1 h. The spectra of 100 μL mixture with addition of different equivalent compounds at 25 °C were recorded based on fluorescence emission (λex = 480 nm).
# TO displacement ratio (%) = (F0 − FC) / (F0 − FB) * 100.
# F0 and FC were the fluorescence intensity of TO at 536 nm with DNA before and after adding compounds, respectively. FB was the fluorescence intensity of TO at 536 nm with buffer only.
# [2] = tested on: BCL-2 promoter C-rich sequence; assay: EMSA of BCL-2 i-motif formation; format: binding; details: pH 6.2; 1, 5, 10 eq
# Protocol: as §1
# The DNA oligonucleotides were diluted to 5 μM with 1 × BPES buffer at pH 5.5 or pH 6.2, and different equivalents of compound were added. The mixtures were annealed at 95 °C for 10 min, gradually cooled to room temperature, and incubated at 4 °C overnight. Electrophoresis was carried out using 20% acrylamide Native PAGE (pH 6.4) with 1 × Tris-borate-EDTA (TBE) as running buffer (pH 6.4) at 80 V for 7 h at 4 °C. The gels were then silver-stained and photographed.
smiles,measurement,setting,value
O=C(CCN1CCOCC1)Nc1ccc2c(c1)c(=O)c1cc(NC(=O)CCN3CCOCC3)ccc1n2-c1ccc2occc2c1 [Compound B14],CD absorption peak of BCL-2 i-motif,BCL-2 i-motif,stronger effect than A22; also recorded: apparently enhanced absorption peak at 286 nm
same,Kd,[1],2.13 µM
same,IC50,HK-2 cells,> 100 µM
same,TO displacement ratio,HRAS promoter i-motif,16%
same,i-motif migration band (EMSA),[2],could induce BCL-2 i-motif formation in a dose-dependent manner
